Source: patent US12263169B2, “Methods of treating neuroepithelial tumors using selective glucocorticoid receptor modulators” (Corcept Therapeutics, Inc., priority 2017, dated 2025)

What was measured:
[1] = test system: GBM4; test: Cell growth inhibition (Alamar Blue cell viability assay); type: cell-based; settings: Homo sapiens, GBM4 patient-derived neurosphere line, 72 hours treatment, triplicate
Protocol: (§1) The effect of GRMs on the growth in culture of human and mouse glioblastoma cells was examined. The GRMs mifepristone and CORT125134 inhibited growth in culture of each of five different glioblastoma cell lines. The highest drug concentration tested was 50 μM. The cell lines used were the Standard Serum Human glioblastoma (GBM) Cell lines: U251, GL261, U87, and the patient-derived neurosphere cell lines GBM8 and GBM4. Cells were plated at cell numbers of 2000 cells/well, in a 96-well format; the experiments were done in triplicate. Cell growth inhibition by the applied drugs was assayed. Cell growth inhibition was quantified by the Alamar Blue method using a commercial assay kit. Cell growth inhibition was determined (“read out”) after 72 hours of treatment. […] Cell Cultures: The human glioblastoma cell lines (obtained from the American Type Culture Collection (ATCC), Manassas VA, USA) tested were U251 and U87 (human), and GL261 (mouse). These were grown as an adherent monolayer cultured in DMEM supplemented with 10% fetal bovine serum (FBS) (Seradigm, a subsidiary of VWR, Radnor PA, USA) and 1% glutamine pen-strep (Omega Scientific, Tarzana CA, USA). GBM8 (passage 12) and GBM4 are patient derived glioma stem cell lines obtained and cultured as neurospheres (spheroids) as described by Galli et al., “Isolation and characterization of tumorigenic, stem-like neural precursors from human glioblastoma” Cancer Res 2004, 64 (19), 7011-21 and Lee et al., “Tumor stem cells derived from glioblastomas cultured in bFGF and EGF more closely mirror the phenotype and genotype of primary tumors than do serum-cultured cell lines” Cancer Cell 2006, 9 (5), 391-403. Initial GBM surgical samples were dissociated in stem cell isolation medium containing human recombinant EGF ([…]), human bFGF ([…]) and heparin (2 μg/ml), washed, filtered through a 30 μm mesh and plated onto ultra-low adherence flasks at a concentration of 5×10^5 to 1.5×10^6 viable cells/ml. Sphere cultures were passaged by dissociation, washing and resuspension in neural stem cell culture medium (NeuroCult™ NS-A Proliferation kit #05751, Stemcell Technologies, Vancouver, BC, CA), according to the manufacturer's instructions. Cell Viability Assay: Cells were seeded into 96-well plates at a density of 2000 cells per well. Compounds were added 24 hours after the seeding of cells. All compounds were diluted in 1% FBS/DMEM. The control was treated with media alone. After 3 days incubation (37° C./5% CO2) Alamar Blue (#BUF012B, AbDSerotec, Kidlington, UK) was added according to the manufacturer's protocol, directly to the medium and placed back in the tissue culture incubator (37° C. 5% CO2). After 3-18 hours fluorescent signal was read at 544ex/590em (SpectraMax i3x plate reader, Molecular Devices, San Jose CA, USA) to determine the number of viable cells. The IC50 values were calculated using commercial software (Prism 5 Software, GraphPad, La Jolla CA, USA). After 24 hours post incubation, cells were treated with drugs at various concentrations for 72 hours. Cell viability was measured after 72 hours by Alamar Blue and results reported as triplicate experiment. The following Table presents the IC50 values as determined in these experiments.

[2] = test system: GBM8; test: as above; type: cell-based; settings: Homo sapiens, GBM8 patient-derived neurosphere line, 72 hours treatment, triplicate
Protocol: as §1

[3] = test system: GL261; test: as above; type: cell-based; settings: Mus musculus, GL261 standard GBM line, 72 hours treatment, triplicate
Protocol: as §1

[4] = test system: U251; test: as above; type: cell-based; settings: Homo sapiens, U-251, U251 standard GBM line, 72 hours treatment, triplicate
Protocol: as §1

[5] = test system: U87; test: as above; type: cell-based; settings: Homo sapiens, U-87 MG, U87 standard GBM line, 72 hours treatment, triplicate
Protocol: as §1

[6] = test system: glioblastoma cell lines U251, GL261, U87, GBM8 and GBM4; test: Cell growth inhibition, summary over five glioblastoma cell lines; type: cell-based, human and mouse; settings: range over five glioblastoma cell lines, 72 hours treatment, Alamar Blue; read-out: half-maximal inhibition concentration (IC50) values, range over the cell lines
Protocol: The effect of GRMs on the growth in culture of human and mouse glioblastoma cells was examined. The GRMs mifepristone and CORT125134 inhibited growth in culture of each of five different glioblastoma cell lines. The highest drug concentration tested was 50 μM. The cell lines used were the Standard Serum Human glioblastoma (GBM) Cell lines: U251, GL261, U87, and the patient-derived neurosphere cell lines GBM8 and GBM4. Cells were plated at cell numbers of 2000 cells/well, in a 96-well format; the experiments were done in triplicate. Cell growth inhibition by the applied drugs was assayed. Cell growth inhibition was quantified by the Alamar Blue method using a commercial assay kit. Cell growth inhibition was determined (“read out”) after 72 hours of treatment. […] Cell Cultures: The human glioblastoma cell lines (obtained from the American Type Culture Collection (ATCC), Manassas VA, USA) tested were U251 and U87 (human), and GL261 (mouse). […] After 3-18 hours fluorescent signal was read at 544ex/590em (SpectraMax i3x plate reader, Molecular Devices, San Jose CA, USA) to determine the number of viable cells. The IC50 values were calculated using commercial software (Prism 5 Software, GraphPad, La Jolla CA, USA). […] Cell viability was measured after 72 hours by Alamar Blue and results reported as triplicate experiment. The following Table presents the IC50 values as determined in these experiments.

[7] = test system: meningioma; test: Treating a meningioma patient with SGRM, tumor load monitored by enhanced MRI; type: in vivo, human; settings: 200 mg once a day for eight weeks
Protocol: A patient complains of tinnitus and right-sided hearing loss for 6 months. […] They are treated with CORT125134 at a dose of 200 mg once a day for eight weeks. Their tumor load is monitored using enhanced MRI before, during and after the treatment.
A patient complains of tinnitus and right-sided hearing loss for 6 months. […] They are treated with CORT125281 at a dose of 200 mg once a day for eight weeks. Their tumor load is monitored using enhanced MRI before, during and after the treatment.

Q: Which results are given for CC#C[C@]1(O)CC[C@H]2[C@@H]3CCC4=CC(=O)CCC4=C3[C@@H](c3ccc(N(C)C)cc3)C[C@@]21C [Mifepristone, 17-β-hydrox-11-β-(4-dimethyl-aminophenyl)17-α-(1-propynyl)estra-4,9-dien-3-one, reference compound]?
A: IC50 [1]: 24.1 µM; IC50 [2]: 24 µM; IC50 [3]: 15.7 µM; IC50 [4]: 18.4 µM; IC50 [5]: 18.4 µM; IC50 [6]: 16 to 24 µM

Q: Which “reduction of tumor size as compared to baseline at the end of the treatment period” value [7] does the source give for Cn1ncc(S(=O)(=O)N2CC[C@H]3Cc4c(cnn4-c4ccc(F)cc4)C[C@]3(C(=O)c3cc(C(F)(F)F)ccn3)C2)n1 [CORT125281, ((4aR,8aS)-1-(4-fluorophenyl)-6-((2-methyl-2H-1,2,3-triazol-4-yl)sulfonyl)-4,4a,5,6,7,8,8a,9-octahydro-1H-pyrazolo[3,4-g]isoquinolin-4a-yl)(4-(trifluoromethyl)pyridin-2-yl)methanone] here?
A: The value was “more than 50%”.

Q: Which IC50 [1] does the source give for Cn1cc(S(=O)(=O)N2CCC3=Cc4c(cnn4-c4ccc(F)cc4)C[C@]3(C(=O)c3cc(C(F)(F)F)ccn3)C2)cn1 [CORT125134, (R)-(1-(4-fluorophenyl)-6-((1-methyl-1H-pyrazol-4-yl)sulfonyl)-4,4a,5,6,7,8-hexahydro-1H-pyrazolo[3,4-g]isoquinolin-4a-yl)(4-(trifluoromethyl)pyridin-2-yl)methanone] here?
A: The IC50 was 20.7 µM.

Q: And the IC50 [2]?
A: Its IC50 is 29.1 µM.

Q: What about the IC50 [3] of the same compound?
A: Its IC50 is 5.86 µM.

Q: And the IC50 [4]?
A: Its IC50 is 12.5 µM.

Q: What about the IC50 [5] of the same compound?
A: The IC50 was 5.42 µM.

Q: And the IC50 [6]?
A: The IC50 was 5 to 29 µM.

Q: What about the “reduction of tumor size as compared to baseline at the end of the treatment period” value [7] of the same compound?
A: The value was “more than 50%”.
